The values that follow come from patent publication EP1070454A1, “TRANSGENIC ANIMAL SHOWING VASCULAR TISSUE-SPECIFIC EXPRESSION OF ANGIOTENSIN II2 RECEPTOR” (SUNTORY LIMITED, priority 1999, dated 2000).

For one assay, the system named is kininogenase. In words: Angiotensin II-induced kininogenase activity in isolated aorta (radioimmunoassay). It is filed as biochemical, mice. The following applies: for inhibition of the increase of kininogenase activity: increase caused by AngII + CV11974; for Angiotensin II-induced kininogenase activity in isolated aorta: mean ± SE. The protocol:
Then, the activity of kininogenase, which is an enzyme for producing bradykinin from kinonogen, was compared between transgenic and wild-type mice in isolated aortic vessels. After abdominal incision of each mouse, the abdominal aorta was isolated and the aortic extract homogenized in the presence of 0.1 M phosphate buffer (0.2% bacitracin, 3 mM O-phenanthroline, 30 mM EDTA-Na2) containing a protease inhibitor was dried in nitrogen under 90% ethanol. The dried extract was solubilized in a buffer containing an angiotensin-converting enzyme inhibitor and tested for kininogenase activity by radioimmunoassay of […] produced from bovine kininogen as a substrate (Table 4).

The subject of assay [1] is cGMP production in isolated aorta. In words: Angiotensin II-induced cGMP production in isolated aorta (radioimmunoassay). Format: cell-based, mice. The following applies: for inhibition of the increase of cGMP production: increase caused by AngII + CV11974; for Angiotensin II-induced cGMP production in isolated aorta: mean ± SE. The text has this:
Then, AngII-induced cGMP production in isolated aortic vessels was compared between transgenic and wild-type mice in order to examine whether or not vasodilator action of AngII is mediated by cGMP. After abdominal incision of each mouse, the abdominal aorta was isolated and the aortic extract homogenized by sonication in ethanol was dried in nitrogen and treated with an acetylation reagent (acetic anhydride : triethylamine = 1:2) and then assayed for cGMP level by radioimmunoassay using an anti cGMP antibody (Table 3). […]

In a further assay the test system is isolated aorta. In words: Angiotensin II-induced contraction of isolated aorta (rings in myograph). It is filed as cell-based, mice. Particulars: for Angiotensin II-induced vasoconstriction: isolated abdominal aorta rings, mean ± SE. The protocol: AngII-induced contraction of isolated aortic vessels was compared between transgenic and wild-type mice. After abdominal incision of each mouse, the abdominal aorta was isolated and cut into rings, which were then suspended under a constant tension of 0.8 g in a myograph. Change of vascular tension after addition of AngII was recorded under perfusion with Tyrode's solution (137 mmol/L NaCl, 2.7 mmol/L KCl, 1.8 mmol/L CaCl2, 1.1 mmol/L MgCl2, 0.42 mmol/L NaH2PO4, 12 mmol/L NaHCO3 and 5.7 mmol/L glucose, pH 7.4) (Table 2). AngII-induced contraction of isolated aorta increased by about 24% in AT2-TG mice in the presence of an AT2 receptor inhibitor (PD123319, 1-[[4-(dimethylamino)-3-methylphenyl]methyl]-5-(diphenylacetyl)-4,5,6,7-tetrahydro-1H-imidazo[4,5-c]pyridine-6-carboxylic acid ditrifluoroacetate monohydrate available from PARKE-DAVIS, Ann Arbor, Michigan) as compared with the contraction in its absence.

A short description of assay [2]: Blood pressure change after continuous administration of angiotensin II (tail-cuff method). Format: in vivo, mice. Particulars: for Average blood pressure under administration of angiotensin II: AngII 0.7 mg/day/kg via osmotic pump, mean ± SE. On the procedure:
Change of average awaking blood pressure induced by chronic administration of angiotensin II (AngII) was compared between transgenic and wild-type mice. AngII (0.7 mg/day/kg) was chronically administered via an osmotic pump embedded in the back of each mouse, and the blood pressure of the mouse was measured at the tail by the tail-cuff method (Table 1). […]

The mark [3] stands for this setting: AT2-TG mice, in the presence of AngII + CV11974 (AT2 receptor stimulation).
The mark [4] stands for this setting: wild-type mice, in the presence of AngII + CV11974 (AT2 receptor stimulation).

For `COC(=O)[C@@H](N)CCCNC(=N)N[N+](=O)[O-]` [L-NAME], the “inhibition of the increase of kininogenase activity” value with kininogenase (AT2-TG mice) is “completely inhibited”. For the same molecule, in assay [1] (AT2-TG mice), the “inhibition of the increase of cGMP production” value is recorded as “completely inhibited”.
Take icatibant: the “inhibition of the increase of kininogenase activity” value in the assay with kininogenase (AT2-TG mice) was “completely inhibited”. Also, the “inhibition of the increase of cGMP production” value in assay [1] (AT2-TG mice) is “completely inhibited”.
Turning to `Cc1cc(Cn2cnc3c2CC(C(=O)O)N(C(=O)C(c2ccccc2)c2ccccc2)C3)ccc1N(C)C.O.O=C(O)C(F)(F)F.O=C(O)C(F)(F)F` (stereo not shown) [PD123319, 1-[[4-(dimethylamino)-3-methylphenyl]methyl]-5-(diphenylacetyl)-4,5,6,7-tetrahydro-1H-imidazo[4,5-c]pyridine-6-carboxylic acid ditrifluoroacetate monohydrate], in the assay with isolated aorta (AT2-TG mice, in the presence of PD123319 compared with its absence), the “increase of AngII-induced contraction of isolated aorta” value was “about 24%”. In addition, the “Angiotensin II-induced vasoconstriction” value in the assay on isolated aorta (AT2-TG mice, with PD123319, relative to its absence) is given as 124±2.1 % of control; in the assay on isolated aorta (Wild-type mice, with PD123319, relative to its absence), 98±1.1 % of control. Besides, in the assay with isolated aorta (wild-type mice, in the presence of PD123319), the “change of AngII-induced contraction” value is on record as “no contraction change”.
“Angiotensin II [AngII, vasopressor whose action is mediated through receptor subtypes AT1 and AT2]”: the “Angiotensin II-induced kininogenase activity in isolated aorta” value in the assay with kininogenase (AT2-TG mice) is on record as 0.76±0.07 ng kinin/mg/h; in the assay with kininogenase (Wild-type mice), 0.68±0.11 ng kinin/mg/h. Moreover, the “Average blood pressure under administration of angiotensin II” value in assay [2] (AT2-TG mice, Day 0) worked out at 85±1.8 mmHg; in assay [2] (AT2-TG mice, Day 4), 84±2.7 mmHg; in assay [2] (AT2-TG mice, Day 7), 87±2.1 mmHg; in assay [2] (AT2-TG mice, Day 14), 89±2.6 mmHg; in assay [2] (Wild-type mice, Day 0), 83±2.7 mmHg; in assay [2] (Wild-type mice, Day 4), 94±2.1 mmHg. Further, the “Average blood pressure under administration of angiotensin II” value in assay [2] (Wild-type mice, Day 7) stood at 114±2.8 mmHg; in assay [2] (Wild-type mice, Day 14), 121±3.2 mmHg. The blood pressure change result in assay [2] (AT2-TG mice, after 2 weeks, AngII 0.7 mg/day/kg) was “no blood pressure change”. The “increase in average blood pressure” value in assay [2] (wild-type mice, after 2 weeks, AngII 0.7 mg/day/kg) was 38 mmHg. The “Angiotensin II-induced vasoconstriction” value in the assay on isolated aorta (AT2-TG mice, without or with PD123319) is 100±0.2 % of control; with isolated aorta (Wild-type mice, without or with PD123319), 100±0.7 % of control. In addition, the “Angiotensin II-induced cGMP production in isolated aorta” value in assay [1] (AT2-TG mice) is recorded as 330±41 fmol/gwt; in assay [1] (Wild-type mice), 328±14 fmol/gwt.
As to `CCOc1nc2cccc(C(=O)O)c2n1Cc1ccc(-c2ccccc2-c2nnn[nH]2)cc1` (racemic) [CV11974], the “increase of kininogenase activity in isolated aorta” value with kininogenase (setting [3]) was 150%. In the assay on kininogenase (setting [4]), the “change of kininogenase activity in isolated aorta” value was “did not change”. Moreover, the “increase of amount of cGMP produced in isolated aorta” value in assay [1] (setting [3]) is listed as 105%. Also, the “change of amount of cGMP produced in isolated aorta” value in assay [1] (setting [4]) is “did not change”.
